# Measured values from US20210024482A1, “Novel Group of STAT3 Pathway Inhibitors and Cancer Stem Cell Pathway Inhibitors” (Sumitomo Dainippon Pharma Oncology, Inc., priority 2007, published 2021).
# Entries after “also recorded” stand apart in the source; their conditions may differ.
# How the values were obtained:
# SW480 Hoechst SP cells = assay: MTT cell viability, SW480 Hoechst side population CSCs; assay type: cell-based; conditions: FIG. 8B
# Procedure: To identify and isolate side population (SP) and non-SP fractions, SW480 cells were removed from the culture dish with trypsin and EDTA, pelleted by centrifugation, washed with phosphate-buffered saline (PBS), and resuspended at 37° C. in Dulbecco's modified Eagle's medium (DMEM) containing 2% FBS and 1 mM HEPES. The cells were then labeled with Hoechst 33342 (Invitrogen) at a concentration of 5 μg/mL. The labeled cells were incubated for 120 minutes at 37° C., either alone or with 50 μM verapamil (Sigma-Aldrich, St. Louis). After staining, the cells were suspended in Hanks' balanced saline solution (HBSS; Invitrogen) containing 2% FBS and 1 mM HEPES, passed a through 40 μm mesh filter, and maintained at 4° C. until flow cytometry analysis. The Hoechst dye was excited at 350 nm, and its fluorescence was measured at two wavelengths using a 450 DF10 (450/20 nm band-pass filter) and a 675LP (675 nm long-pass edge filter) optical filter. The gating on forward and side scatter was not stringent, and only debris was excluded,
# (§1) For 3-(4,5 dimethylthiazol-2-yl)-2,5-diphenyltetrazolium (MTT) (Sigma-Aldrich, St. Louis, Mo.) analysis, cells were plated in 96 well plates at 10,000 cells per well. 24 hours after plating, compound was added to cells at indicated doses. 22 hours following compound addition, MTT was added to each well (0.5 mg/ml, final concentration) and plates were incubated for an additional 2 hours at 37° C. Medium was then aspirated and the formazan product was solubilized in 100 μl of isopropyl alcohol. The absorbance of each well was measured at 570 nm using a microplate reader.
# The IC50 of compound 401 against the Hoechst side population was accessed in MTT assays and was compared to the IC50 against the non-side population.
# In addition, we tested the activities of several other compounds against cancer stem cells. Briefly, freshly isolated CSCs (SW480 Hoechst SP cells or CD44^high FaDu cells) were exposed to a dose range (30-0.117 μM) of compound for 48 h before examining cell viability by MTT assay. IC50s were estimated by plotting the percentage of surviving cells. As shown in Table 4 and Table 5, compounds of present invention can target cancer stem cells.
# CD34^+ BM Erythroid = assay: Colony formation assay, CD34+ bone marrow erythroid lineage; assay type: cell-based
# Excerpt: In a similar fashion to PMBCs, CD34^+ bone marrow hematopoietic stem cells were spared when treated with compound 401.
# Stat3 [1] = assay: Stat3 DNA binding assay (EMSA) with HeLa nuclear extracts; assay type: biochemical; conditions: HeLa nuclear extract, FIG. 7A/7B
# Procedure: Electrophoretic mobility shift assay (EMSA) was performed as described by the manufacturer (Li-Cor Biosciences, Lincoln, Nebr.). Briefly, nuclear extracts were made from HeLa cells using the NucBuster Protein Extraction Kit as described by the manufacturer (EMD Biosciences, San Diego, Calif.). 5 μg of nuclear extract was pre-incubated with the indicated dose of indicated compound for 30 minutes prior to a 15-minute incubation with the IR700-labeled consensus Stat3 oligonucleotide. Samples were then electrophoresed on a polyacrylamide gel and directly scanned using the Odyssey infrared imaging system (Li-Cor Biosciences). For the enzyme-linked immunosorbent assay (ELISA), 5 μg of nuclear extract was preincubated with indicated concentration of indicated compound for 30 minutes prior to the addition of biotinylated oligo (5′-Biotin-[…]-3′, SEQ ID NO. 1). Stat3-DNA complexes were then captured on streptavidin coated 96 well plates (Pierce, Rockford, Ill.). Bound complexes were then incubated with Stat3 polyclonal antibody (Santa Cruz Biotechnology, Santa Cruz, Calif.) followed by anti-rabbit HRP conjugated secondary antibody (GE Healthcare, Pittsburgh, Pa.). Bound antibody was then visualized by addition of TMB substrate (Pierce) and absorbance measured at 450 nm,
# Nuclear extracts from HeLa cells, which contain constitutively activated Stat3 as detected by phoshporylation at the tyrosine 705 residue, were used to perform Stat3 EMSAs to monitor Stat3 DNA binding activity. Nuclear extracts were incubated with indicated compound prior to incubation with IR700-labeled Stat3 consensus oligonucleotide. Binding of Stat3 to the oligonucleotide was monitored by gel electrophoresis and detection using a LiCor Odyssey infrared scanner.
# Stat3 [2] = assay: Stat3-luciferase (Stat3-Luc) reporter assay, OSM-stimulated HeLa cells; assay type: cell-based; conditions: FIG. 6
# Procedure: HeLa Cells were co-transfected with Stat3-luciferase (Stat3-Luc) reporter vector (Panomics, Fremont, Calif.) and Renilla luciferase (Promega, Madison, Wis.) using Lipofectamine 2000 as described by the manufacturer (Invitrogen). Following transfection, cells were maintained in medium containing 0.5% FBS for 24 hours. Cells were then treated with the indicated compound for 30 minutes prior to the addition of 25 ng/ml oncostatin M (OSM) (R&D Systems, Minneapolis, Minn.) to the medium. 6 hours following OSM addition, cells were harvested and levels of firefly and renilla luciferase were measured using the Dual-Glo Luciferase Assay System as described by the manufacturer (Promega).
# Compounds were tested for their ability to inhibit Stat3 transcription activation activity in cells using a Stat3-luciferase (Stat3-luc) reporter construct. Cells transfected with Stat3-luc were cultured in reduced serum medium prior to addition of indicated compound for 30 minutes. Cells were then stimulated with 25 ng/ml oncostatin M (OSM) for 6 hours followed by detection of Stat3-luc reporter activity. […] AG490, a known inhibitor of the Jak-Stat pathway, was included as a positive control for Stat3 inhibition.
# [3] = test system: Hoechst side population cells; assay: Annexin V staining of Hoechst side population cells; assay type: cell-based; conditions: FIG. 9A
# Procedure: Cells treated with or without compound were harvested at 5 hours post treatment for Annexin-V staining. Collected cells were washed with PBS and resuspended in Annexin-V-FITC containing buffer and stained according to manufactures directions (Roche). Annexin-V positive cells were determined by Flow cytometry.
# Cells treated with indicated compound for an indicated time were either fixed in 4% formaldehyde or cold methanol for the detection of Annexin V, cleaved caspase 3, or stat3, respectively. Coverslips were air dried and rehydrated in PBS at room temperature for 10 min. Samples were then incubated in blocking buffer (PBS, 5% FBS) for 10 min at room temperature in a humid chamber. Cells were incubated overnight at 4° C. with primary antibodies. After washing, the cells were incubated for 1 hour at room temperature with a 1:500 dilution of FITC conjugated anti-rabbit antibody. Images were captured with a Nikon TE200 microscope equipped with epifluorescence and a SPOT mosaic CCD camerapolyclonal Anti-cleaved caspase 3 antibody (1:100) was obtained from Cell Signaling Technology, Danvers, Mass. Annexin-V-FITC was obtained from Roche, Penzberg, Germany. Polyclonal anti-Stat3 antibody was obtained from Santa Cruz.
# The Hoechst side population cells were treated with compound 401 and the mode of cell death was accessed by Annexin V (an early marker for apoptosis) staining.
# [4] = test system: Peripheral blood mononuclear cells (PBMCs); assay: MTT cell viability of normal PBMCs; assay type: cell-based; conditions: PBMC, 24 hour incubation
# Procedure: as §1
# Under assay conditions that result in the death of virtually all cancer cells, normal cells remain substantially viable.
compound,measurement,setting,value
"CC(=O)c1cc2c(o1)C(=O)c1ccccc1C2=O [Compound 401, 2-acetylnaphtho[2,3-b]furan-4,9-dione]",sensitivity of side population compared to non-side population,SW480 Hoechst SP cells,the side population is as sensitive as the non-side population
same,therapeutic window,"CD34^+ BM Erythroid; CD34+ bone marrow cells vs DU145 and HT29, in vitro",greater than 50 fold
same,IC50,"CD34^+ BM Erythroid; normal cells, 6 hours incubation, colony formation",> 30 µM
same,inhibition of Stat3 DNA binding activity,Stat3 [1],Dose dependent inhibition of Stat3 DNA binding; also recorded: can inhibit Stat3's DNA binding activity
same,inhibition of OSM-stimulated Stat3 reporter activity,Stat3 [2],inhibited OSM-stimulated Stat3 reporter activity
same,mode of cell death by Annexin V staining,[3],the dying cells are Annexin V positive
same,IC50,[4],14 µM
